Key:
Leishmania mexicana [1] = test: Inhibition of Leishmania mexicana cysteine protease CBP2.8deltaCTE at 2 ug/mL
Leishmania mexicana [2] = test: Inhibition of Leishmania mexicana cysteine protease CBP2.8deltaCTE at 20 ug/mL

inhibition (Leishmania mexicana [1]) [%]	inhibition (Leishmania mexicana [2]) [%]	SMILES
1.1	38.7	CC(C)(C)OC(=O)N[C@@H](Cc1ccccc1)/C(SCCc1ccccc1)=C(\F)S(=O)(=O)c1ccccc1
0	15.1	CC(C)(C)OC(=O)N[C@@H](Cc1ccccc1)/C(SCCc1ccccc1)=C(/F)S(=O)(=O)c1ccccc1
71.3	97	O=C(N[C@H](/C=C/S(=O)(=O)c1ccccc1)Cc1ccccc1)[C@H](Cc1ccccc1)NC(=O)N1CCOCC1
